Measurements taken from ChEMBL document CHEMBL1145608, “Selective androgen receptor modulators based on a series of 7H-[1,4]oxazino[3,2-g]quinolin-7-ones with improved in vivo activity” (Bioorg Med Chem Lett, 2008).
Active and inactive are the calls of the source. No cut-off for these calls is given here.

Target: T1, Androgen receptor (Homo sapiens, UniProt P10275)
T1 sequence (P10275 whole entry): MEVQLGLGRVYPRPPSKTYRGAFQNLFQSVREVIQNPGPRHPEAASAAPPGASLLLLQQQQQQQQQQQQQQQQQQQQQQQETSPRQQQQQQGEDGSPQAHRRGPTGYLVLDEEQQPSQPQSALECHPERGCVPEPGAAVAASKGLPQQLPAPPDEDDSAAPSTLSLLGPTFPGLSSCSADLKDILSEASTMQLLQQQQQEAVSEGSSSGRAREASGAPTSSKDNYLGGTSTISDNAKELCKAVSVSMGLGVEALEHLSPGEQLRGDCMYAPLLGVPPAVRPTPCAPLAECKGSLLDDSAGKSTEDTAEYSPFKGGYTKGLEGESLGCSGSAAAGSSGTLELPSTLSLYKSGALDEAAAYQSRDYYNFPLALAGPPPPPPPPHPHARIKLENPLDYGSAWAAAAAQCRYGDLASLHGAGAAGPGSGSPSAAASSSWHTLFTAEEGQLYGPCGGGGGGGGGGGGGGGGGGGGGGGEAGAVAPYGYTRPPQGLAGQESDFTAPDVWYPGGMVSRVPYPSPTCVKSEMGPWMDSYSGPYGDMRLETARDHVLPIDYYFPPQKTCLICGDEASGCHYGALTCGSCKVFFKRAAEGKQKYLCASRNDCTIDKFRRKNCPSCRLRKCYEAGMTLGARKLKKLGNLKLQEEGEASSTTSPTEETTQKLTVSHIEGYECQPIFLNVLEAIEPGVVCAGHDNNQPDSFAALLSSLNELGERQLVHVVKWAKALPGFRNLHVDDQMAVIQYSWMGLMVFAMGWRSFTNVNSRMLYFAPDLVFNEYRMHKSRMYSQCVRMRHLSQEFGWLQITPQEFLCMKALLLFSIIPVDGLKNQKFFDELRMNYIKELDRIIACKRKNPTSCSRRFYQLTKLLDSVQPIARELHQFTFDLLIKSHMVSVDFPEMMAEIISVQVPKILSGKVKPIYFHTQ
Assay: not given
Details: not given
For `O=c1cc(C(F)(F)F)c2cc3c(cc2[nH]1)OC[C@@H](C(F)(F)F)N3CC(F)(F)F`, the IC50 was 0.034 µM. Work on `O=c1cc(C(F)(F)F)c2cc3c(cc2[nH]1)OC[C@@H](Cc1ccccc1)N3CC(F)(F)F` yielded an IC50 of 0.051 µM. With `O=c1cc(C(F)(F)F)c2cc3c(cc2[nH]1)OC[C@H](CO)N3CC(F)(F)F` the IC50 was 0.165 µM. `Cc1cccc([C@H]2COc3cc4[nH]c(=O)cc(C(F)(F)F)c4cc3N2CC(F)(F)F)c1` gave an IC50 of 0.574 µM. For `O=c1cc(C(F)(F)F)c2cc3c(cc2[nH]1)OC[C@H](c1ccccc1)N3CC(F)(F)F`, the IC50 was 0.34 µM. Work on `COC[C@H]1COc2cc3[nH]c(=O)cc(C(F)(F)F)c3cc2N1CC(F)(F)F` yielded an IC50 of 0.017 µM. Work on `O=c1cc(C(F)(F)F)c2cc3c(cc2[nH]1)OC[C@@H](CF)N3CC(F)(F)F` yielded an IC50 of 0.199 µM. `Cc1ccc([C@H]2COc3cc4[nH]c(=O)cc(C(F)(F)F)c4cc3N2CC(F)(F)F)cc1` showed an IC50 of 0.044 µM. For `CSCC1COc2cc3[nH]c(=O)cc(C(F)(F)F)c3cc2N1CC(F)(F)F` (racemic), the IC50 was 0.025 µM. With `O=c1cc(C(F)(F)F)c2cc3c(cc2[nH]1)OC[C@@H](CO)N3CC(F)(F)F` the IC50 was 0.06 µM.

Test system: Rattus norvegicus
Assay: Effect on Levator ani muscle weight maintenance in orchidectomized Sprague-Dawley rat at 3 mg/kg, po
Type: functional, organism-based
Parameters: dose 3 mg/kg
Details: not given
For `O=c1cc(C(F)(F)F)c2cc3c(cc2[nH]1)OC[C@H](C(F)(F)F)N3CC(F)(F)F`, the Activity was “Active”.

Test system: not listed separately
Assay: Metabolic stability in rat liver microsome at 5 uM
Type: ADME
Details: liver microsomes
With `O=c1cc(C(F)(F)F)c2cc3c(cc2[nH]1)OC[C@H](C(F)(F)F)N3CC(F)(F)F` the half-life at 5 µM was 1.67 h. With `O=c1cc(C(F)(F)F)c2cc3c(cc2[nH]1)OC[C@H](CF)N3CC(F)(F)F` the half-life at 5 µM was 0.567 h.

Test system: Rattus norvegicus
Assay: Effect on Levator ani muscle weight maintenance in orchidectomized Sprague-Dawley rat at 10 mg/kg, po
Type: functional, organism-based
Parameters: dose 10 mg/kg
Details: not given
With `O=c1cc(C(F)(F)F)c2cc3c(cc2[nH]1)OC[C@H](CF)N3CC(F)(F)F` the Activity was “Active”.

Target: T1, Androgen receptor
Assay: not given
Details: not given
Remark: another data set of the same source
In the case of `O=c1cc(C(F)(F)F)c2cc3c(cc2[nH]1)OC[C@@H](C(F)(F)F)N3CC(F)(F)F`, the EC50 is reported as 0.042 µM. In the case of `N#CCC1COc2cc3[nH]c(=O)cc(C(F)(F)F)c3cc2N1CC(F)(F)F` (racemic), the EC50 is reported as 0.03 µM. In the case of `O=c1cc(C(F)(F)F)c2cc3c(cc2[nH]1)OCC(C(F)(F)F)N3CC(F)(F)F` (racemic), the EC50 is reported as 0.0059 µM. For `O=c1cc(C(F)(F)F)c2cc3c(cc2[nH]1)OC[C@@H](c1ccccc1)N3CC(F)(F)F`, the EC50 was 0.0053 µM. Compound `O=c1cc(C(F)(F)F)c2cc3c(cc2[nH]1)OC[C@H](C(F)(F)F)N3CC(F)(F)F` has an EC50 of 0.002 µM. In the case of `Cc1cccc([C@@H]2COc3cc4[nH]c(=O)cc(C(F)(F)F)c4cc3N2CC(F)(F)F)c1`, the EC50 is reported as 0.019 µM. Compound `O=c1cc(C(F)(F)F)c2cc3c(cc2[nH]1)OC[C@H](CO)N3CC(F)(F)F` has an EC50 of 0.0066 µM. `CCCOCC1COc2cc3[nH]c(=O)cc(C(F)(F)F)c3cc2N1CC(F)(F)F` (racemic) gave an EC50 of 0.0042 µM. Work on `Cc1ccc([C@@H]2COc3cc4[nH]c(=O)cc(C(F)(F)F)c4cc3N2CC(F)(F)F)cc1` yielded an EC50 of 0.036 µM. For `COC[C@H]1COc2cc3[nH]c(=O)cc(C(F)(F)F)c3cc2N1CC(F)(F)F`, the EC50 was 0.077 µM. With `O=c1cc(C(F)(F)F)c2cc3c(cc2[nH]1)OC[C@@H](CF)N3CC(F)(F)F` the EC50 was 0.035 µM. `CCOCC1COc2cc3[nH]c(=O)cc(C(F)(F)F)c3cc2N1CC(F)(F)F` (racemic) showed an EC50 of 0.0032 µM. With `O=c1cc(C(F)(F)F)c2cc3c(cc2[nH]1)OCC(C(F)F)N3CC(F)(F)F` (racemic) the EC50 was 0.0013 µM. For `CSCC[C@@H]1COc2cc3[nH]c(=O)cc(C(F)(F)F)c3cc2N1CC(F)(F)F`, the EC50 was 0.023 µM. `O=c1cc(C(F)(F)F)c2cc3c(cc2[nH]1)OC[C@@H](CC(F)(F)F)N3CC(F)(F)F` showed an EC50 of 0.023 µM. Compound `COC[C@@H]1COc2cc3[nH]c(=O)cc(C(F)(F)F)c3cc2N1CC(F)(F)F` has an EC50 of 0.002 µM. In the case of `CSCC1COc2cc3[nH]c(=O)cc(C(F)(F)F)c3cc2N1CC(F)(F)F` (racemic), the EC50 is reported as 0.028 µM. `O=c1cc(C(F)(F)F)c2cc3c(cc2[nH]1)OC[C@@H](CO)N3CC(F)(F)F` gave an EC50 of 0.011 µM. Compound `O=c1cc(C(F)(F)F)c2cc3c(cc2[nH]1)OC[C@H](CF)N3CC(F)(F)F` has an EC50 of 0.0038 µM.

Target: T1, Androgen receptor
Assay: biochemical
Details: not given
For `O=c1cc(C(F)(F)F)c2cc3c(cc2[nH]1)OC[C@@H](C(F)(F)F)N3CC(F)(F)F`, the Ki was 0.281 µM. For `N#CCC1COc2cc3[nH]c(=O)cc(C(F)(F)F)c3cc2N1CC(F)(F)F` (racemic), the Ki was 0.018 µM. For `O=c1cc(C(F)(F)F)c2cc3c(cc2[nH]1)OCC(C(F)(F)F)N3CC(F)(F)F` (racemic), the Ki was 0.0083 µM. `O=c1cc(C(F)(F)F)c2cc3c(cc2[nH]1)OC[C@@H](c1ccccc1)N3CC(F)(F)F` gave a Ki of 0.0013 µM. In the case of `O=c1cc(C(F)(F)F)c2cc3c(cc2[nH]1)OC[C@H](C(F)(F)F)N3CC(F)(F)F`, the Ki is reported as 0.0059 µM. `Cc1cccc([C@@H]2COc3cc4[nH]c(=O)cc(C(F)(F)F)c4cc3N2CC(F)(F)F)c1` showed a Ki of 0.0011 µM. In the case of `O=c1cc(C(F)(F)F)c2cc3c(cc2[nH]1)OC[C@H](CO)N3CC(F)(F)F`, the Ki is reported as 0.022 µM. In the case of `Cc1cccc([C@H]2COc3cc4[nH]c(=O)cc(C(F)(F)F)c4cc3N2CC(F)(F)F)c1`, the Ki is reported as 0.18 µM. Compound `O=c1cc(C(F)(F)F)c2cc3c(cc2[nH]1)OC[C@H](c1ccccc1)N3CC(F)(F)F` has a Ki of 0.15 µM. Work on `COC[C@H]1COc2cc3[nH]c(=O)cc(C(F)(F)F)c3cc2N1CC(F)(F)F` yielded a Ki of 0.109 µM. `O=c1cc(C(F)(F)F)c2cc3c(cc2[nH]1)OC[C@@H](CF)N3CC(F)(F)F` showed a Ki of 0.032 µM. Work on `O=c1cc(C(F)(F)F)c2cc3c(cc2[nH]1)OCC(C(F)F)N3CC(F)(F)F` (racemic) yielded a Ki of 0.0066 µM. Compound `CSCC[C@@H]1COc2cc3[nH]c(=O)cc(C(F)(F)F)c3cc2N1CC(F)(F)F` has a Ki of 0.0024 µM. For `O=c1cc(C(F)(F)F)c2cc3c(cc2[nH]1)OC[C@@H](CC(F)(F)F)N3CC(F)(F)F`, the Ki was 0.018 µM. With `COC[C@@H]1COc2cc3[nH]c(=O)cc(C(F)(F)F)c3cc2N1CC(F)(F)F` the Ki was 0.0094 µM. `O=c1cc(C(F)(F)F)c2cc3c(cc2[nH]1)OC[C@@H](CO)N3CC(F)(F)F` showed a Ki of 0.015 µM. Work on `O=c1cc(C(F)(F)F)c2cc3c(cc2[nH]1)OC[C@H](CF)N3CC(F)(F)F` yielded a Ki of 0.0026 µM.
